In one assay the target is T1, hSCN3A (Homo sapiens, UniProt Q9NY46).
T1 construct: expressed in transfected cells
The experiment in a line: Whole-cell patch-clamp electrophysiology (conventional or PatchXpress), HEK cells expressing hSCN3A, estimated IC-50. Type of assay: cell-based. The settings on record: estimated IC-50, HEK cells expressing hSCN3A; class symbols or bounds; read-out: SCN3A EIC-50. Summed up: (§1)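 Stably transfected HEK cells recorded by whole-cell voltage clamp (manual or PatchXpress) at 22–24 °C in pH 7.4 HEPES-buffered extracellular solution. Cells held at the empirically determined inactivation V1/2 after an 8 s prepulse, then stepped to 0 mV for 20 ms; % inhibition from current amplitude before vs after compound.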

The next assay concerns the target T2, hSCN9A (Homo sapiens, UniProt Q15858).
T2 construct: expressed in transfected cells
Description: Whole-cell patch-clamp electrophysiology (conventional or PatchXpress), HEK cells expressing hSCN9A, estimated IC-50. Type of assay: cell-based. Conditions: estimated IC-50, HEK cells expressing hSCN9A; class symbols or bounds; read-out: SCN9A EIC-50. The method, boiled down:
as §1

Where only a bound is given, the exact number is not on record here.

T1 sequence (Q9NY46 whole entry): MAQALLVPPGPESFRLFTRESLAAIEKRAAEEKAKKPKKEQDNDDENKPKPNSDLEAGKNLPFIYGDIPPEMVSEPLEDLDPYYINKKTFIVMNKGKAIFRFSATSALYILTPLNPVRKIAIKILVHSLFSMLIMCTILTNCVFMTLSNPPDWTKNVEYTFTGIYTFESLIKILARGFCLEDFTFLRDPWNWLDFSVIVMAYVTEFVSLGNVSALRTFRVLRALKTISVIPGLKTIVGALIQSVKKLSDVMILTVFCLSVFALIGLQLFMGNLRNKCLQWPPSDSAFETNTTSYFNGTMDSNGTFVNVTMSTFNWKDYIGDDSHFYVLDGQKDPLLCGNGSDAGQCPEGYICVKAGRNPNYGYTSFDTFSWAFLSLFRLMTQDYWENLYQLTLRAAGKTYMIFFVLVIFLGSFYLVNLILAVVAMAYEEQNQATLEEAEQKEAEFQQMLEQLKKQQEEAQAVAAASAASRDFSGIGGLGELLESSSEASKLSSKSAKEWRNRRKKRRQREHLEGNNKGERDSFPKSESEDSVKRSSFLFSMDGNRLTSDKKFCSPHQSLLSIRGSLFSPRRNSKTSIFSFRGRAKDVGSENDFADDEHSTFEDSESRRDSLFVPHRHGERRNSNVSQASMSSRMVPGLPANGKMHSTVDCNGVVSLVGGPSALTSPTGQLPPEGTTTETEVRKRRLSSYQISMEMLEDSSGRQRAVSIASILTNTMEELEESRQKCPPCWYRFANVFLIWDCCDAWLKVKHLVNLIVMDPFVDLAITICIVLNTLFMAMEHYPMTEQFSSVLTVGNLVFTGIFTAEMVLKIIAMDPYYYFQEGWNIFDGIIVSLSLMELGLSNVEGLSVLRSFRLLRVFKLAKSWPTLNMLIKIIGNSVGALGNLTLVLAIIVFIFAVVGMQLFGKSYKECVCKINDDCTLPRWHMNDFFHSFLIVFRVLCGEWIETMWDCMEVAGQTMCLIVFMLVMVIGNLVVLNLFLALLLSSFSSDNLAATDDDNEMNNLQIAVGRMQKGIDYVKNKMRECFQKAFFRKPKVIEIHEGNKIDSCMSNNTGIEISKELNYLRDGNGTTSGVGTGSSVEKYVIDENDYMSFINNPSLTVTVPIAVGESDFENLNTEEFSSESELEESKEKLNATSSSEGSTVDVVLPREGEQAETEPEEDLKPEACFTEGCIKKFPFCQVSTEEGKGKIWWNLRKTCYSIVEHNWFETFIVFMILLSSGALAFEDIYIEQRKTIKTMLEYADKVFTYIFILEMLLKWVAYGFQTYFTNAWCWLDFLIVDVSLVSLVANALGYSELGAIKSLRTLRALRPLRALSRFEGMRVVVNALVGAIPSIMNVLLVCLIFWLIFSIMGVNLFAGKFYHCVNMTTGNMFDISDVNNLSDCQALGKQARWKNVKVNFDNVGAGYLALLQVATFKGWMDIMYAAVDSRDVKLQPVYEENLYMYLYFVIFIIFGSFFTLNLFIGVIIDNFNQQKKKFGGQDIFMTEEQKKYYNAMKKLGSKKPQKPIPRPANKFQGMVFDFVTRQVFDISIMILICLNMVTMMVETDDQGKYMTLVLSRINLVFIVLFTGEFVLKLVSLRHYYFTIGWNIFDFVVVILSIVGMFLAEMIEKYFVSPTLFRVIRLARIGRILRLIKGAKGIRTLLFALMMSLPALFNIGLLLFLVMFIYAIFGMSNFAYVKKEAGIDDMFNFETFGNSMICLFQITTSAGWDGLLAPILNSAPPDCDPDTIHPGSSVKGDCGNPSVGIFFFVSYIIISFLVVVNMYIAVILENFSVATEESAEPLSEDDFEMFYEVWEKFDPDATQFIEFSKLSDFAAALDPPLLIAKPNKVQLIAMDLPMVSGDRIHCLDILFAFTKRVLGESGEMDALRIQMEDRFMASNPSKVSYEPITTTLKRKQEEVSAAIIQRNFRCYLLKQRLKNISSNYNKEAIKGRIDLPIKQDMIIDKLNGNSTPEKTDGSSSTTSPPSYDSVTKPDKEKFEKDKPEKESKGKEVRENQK
T2 sequence (Q15858 whole entry): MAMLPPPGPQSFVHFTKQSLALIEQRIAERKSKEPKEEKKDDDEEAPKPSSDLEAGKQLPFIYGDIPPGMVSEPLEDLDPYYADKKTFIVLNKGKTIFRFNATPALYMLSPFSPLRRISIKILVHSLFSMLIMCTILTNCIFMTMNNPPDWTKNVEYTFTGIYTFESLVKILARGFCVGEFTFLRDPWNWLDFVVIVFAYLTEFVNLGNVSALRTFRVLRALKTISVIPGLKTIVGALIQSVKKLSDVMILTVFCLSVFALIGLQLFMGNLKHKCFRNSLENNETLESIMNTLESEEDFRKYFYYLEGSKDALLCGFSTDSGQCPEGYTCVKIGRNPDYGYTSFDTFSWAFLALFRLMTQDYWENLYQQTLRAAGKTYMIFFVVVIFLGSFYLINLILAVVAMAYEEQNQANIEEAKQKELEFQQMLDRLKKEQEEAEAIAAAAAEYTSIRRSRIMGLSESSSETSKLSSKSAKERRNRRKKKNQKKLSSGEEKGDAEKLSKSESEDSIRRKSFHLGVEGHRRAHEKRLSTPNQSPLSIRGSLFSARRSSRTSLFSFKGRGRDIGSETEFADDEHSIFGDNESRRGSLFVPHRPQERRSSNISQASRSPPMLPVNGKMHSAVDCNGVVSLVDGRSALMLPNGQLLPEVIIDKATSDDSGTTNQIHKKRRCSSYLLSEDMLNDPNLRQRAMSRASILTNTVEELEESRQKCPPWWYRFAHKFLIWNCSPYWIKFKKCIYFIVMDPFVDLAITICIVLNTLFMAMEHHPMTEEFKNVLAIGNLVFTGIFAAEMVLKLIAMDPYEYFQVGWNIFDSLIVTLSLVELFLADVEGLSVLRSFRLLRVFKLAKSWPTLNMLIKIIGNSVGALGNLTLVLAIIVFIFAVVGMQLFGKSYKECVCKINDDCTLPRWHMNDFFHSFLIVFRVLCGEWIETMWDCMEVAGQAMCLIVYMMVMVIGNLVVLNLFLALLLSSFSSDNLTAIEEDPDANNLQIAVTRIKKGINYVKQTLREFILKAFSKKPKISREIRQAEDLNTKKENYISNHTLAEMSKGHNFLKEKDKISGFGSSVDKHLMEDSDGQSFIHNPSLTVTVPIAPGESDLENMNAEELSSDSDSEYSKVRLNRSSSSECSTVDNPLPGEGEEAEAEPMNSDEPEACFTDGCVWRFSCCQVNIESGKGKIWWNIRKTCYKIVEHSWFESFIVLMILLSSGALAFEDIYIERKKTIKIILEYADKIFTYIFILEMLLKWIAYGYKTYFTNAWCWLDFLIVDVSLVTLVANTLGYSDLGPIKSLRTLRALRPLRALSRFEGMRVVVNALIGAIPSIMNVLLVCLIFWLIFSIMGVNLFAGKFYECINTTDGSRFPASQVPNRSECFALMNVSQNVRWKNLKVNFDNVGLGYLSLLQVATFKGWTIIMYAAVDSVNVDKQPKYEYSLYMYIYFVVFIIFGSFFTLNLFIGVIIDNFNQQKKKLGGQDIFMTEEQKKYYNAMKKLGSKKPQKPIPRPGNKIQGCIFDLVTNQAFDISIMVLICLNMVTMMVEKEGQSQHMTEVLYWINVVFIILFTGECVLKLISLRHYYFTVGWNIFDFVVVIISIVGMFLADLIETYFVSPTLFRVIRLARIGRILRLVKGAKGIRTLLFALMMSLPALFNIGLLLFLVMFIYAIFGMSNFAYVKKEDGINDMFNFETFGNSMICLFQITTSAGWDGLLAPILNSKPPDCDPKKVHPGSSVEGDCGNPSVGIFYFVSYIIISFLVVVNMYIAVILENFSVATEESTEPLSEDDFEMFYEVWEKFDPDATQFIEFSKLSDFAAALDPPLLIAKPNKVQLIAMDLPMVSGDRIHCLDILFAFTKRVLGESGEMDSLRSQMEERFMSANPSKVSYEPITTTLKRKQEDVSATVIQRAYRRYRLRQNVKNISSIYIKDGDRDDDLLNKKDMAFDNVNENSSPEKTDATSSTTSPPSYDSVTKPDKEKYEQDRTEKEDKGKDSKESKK

As to `CC(C)(C)c1ccc(OCc2csc(Nc3ccc(S(=O)(=O)Nc4nccs4)cc3)n2)cc1` [Compound 62, 4-(4-((4-tert-butylphenoxy)methyl)thiazol-2-ylamino)-N-(thiazol-2-yl)benzenesulfonamide], the IC50 at hSCN3A is under 2000 nM; at hSCN9A, 2000 to 10000 nM.

For `CC(Oc1ccccc1)c1csc(Nc2ccc(S(=O)(=O)Nc3nccs3)cc2)n1` (stereo not drawn) [Compound 63, 4-(4-(1-phenoxyethyl)thiazol-2-ylamino)-N-(thiazol-2-yl)benzenesulfonamide], the IC50 is under 2000 nM on hSCN3A and 2000 to 10000 nM at hSCN9A.

For the compound `O=S(=O)(Nc1nccs1)c1ccc(Nc2nc(C3(c4ccc(Cl)cc4)CCCC3)cs2)cc1` [Compound 64, 4-(4-(1-(4-chlorophenyl)cyclopentyl)thiazol-2-ylamino)-N-(thiazol-2-yl)benzenesulfonamide], the IC50 was under 2000 nM on hSCN3A and over 1000 nM at hSCN9A.

In the case of `O=S(=O)(Nc1nccs1)c1ccc(Nc2nc(CNCc3ccc(Cl)cc3)cs2)cc1` [Compound 65, 4-(4-((4-chlorobenzylamino)methyl)thiazol-2-ylamino)-N-(thiazol-2-yl)benzenesulfonamide], the IC50 on hSCN3A and on hSCN9A was under 2000 nM throughout.

`COc1ccc(CCNCc2csc(Nc3ccc(S(=O)(=O)Nc4nccs4)cc3)n2)cc1OC` [Compound 66, 4-(4-((3,4-dimethoxyphenethylamino)methyl)thiazol-2-ylamino)-N-(thiazol-2-yl)benzenesulfonamide]: the IC50 was over 1000 nM at hSCN3A and over 3000 nM at hSCN9A.

For the compound `CN(CCc1ccccc1)Cc1csc(Nc2ccc(S(=O)(=O)Nc3nccs3)cc2)n1` [Compound 67, 4-(4-((methyl(phenethyl)amino)methyl)thiazol-2-ylamino)-N-(thiazol-2-yl)benzenesulfonamide], the IC50 is under 2000 nM on hSCN3A and 2000 to 10000 nM on hSCN9A.

With `CCN(CC)Cc1csc(Nc2ccc(S(=O)(=O)Nc3nccs3)cc2)n1` [Compound 68, 4-(4-((diethylamino)methyl)thiazol-2-ylamino)-N-(thiazol-2-yl)benzenesulfonamide], the IC50 was over 1000 nM at hSCN3A and 2000 to 10000 nM at hSCN9A.

For `O=S(=O)(Nc1nccs1)c1ccc(Nc2nc(CNCCCCc3ccccc3)cs2)cc1` [Compound 69, 4-(4-((4-phenylbutylamino)methyl)thiazol-2-ylamino)-N-(thiazol-2-yl)benzenesulfonamide], the IC50 at hSCN3A and on hSCN9A was under 2000 nM in each case.

For `CN(Cc1csc(Nc2ccc(S(=O)(=O)Nc3nccs3)cc2)n1)C(c1ccccc1)c1ccccc1` [Compound 70, 4-(4-((benzhydryl(methyl)amino)methyl)thiazol-2-ylamino)-N-(thiazol-2-yl)benzenesulfonamide], the IC50 at hSCN3A is under 2000 nM; on hSCN9A it was over 1000 nM.

`O=S(=O)(Nc1nccs1)c1ccc(Nc2nc(CNCc3ccc(C(F)(F)F)cc3)cs2)cc1` [Compound 71, N-(thiazol-2-yl)-4-(4-((4-(trifluoromethyl)benzylamino)methyl)thiazol-2-ylamino)benzenesulfonamide]: the values for the IC50 on hSCN3A and at hSCN9A were under 2000 nM and 2000 to 10000 nM, respectively.

With `O=[N+]([O-])c1ccc(CNCc2csc(Nc3ccc(S(=O)(=O)Nc4nccs4)cc3)n2)cc1` [Compound 72, 4-(4-((4-nitrobenzylamino)methyl)thiazol-2-ylamino)-N-(thiazol-2-yl)benzenesulfonamide], the IC50 on hSCN3A is under 2000 nM; at hSCN9A, 2000 to 10000 nM.

Take `CN(C)c1ccc(CNCc2csc(Nc3ccc(S(=O)(=O)Nc4nccs4)cc3)n2)cc1` [Compound 73, 4-(4-((4-(dimethylamino)benzylamino)methyl)thiazol-2-ylamino)-N-(thiazol-2-yl)benzenesulfonamide]: the values for the IC50 on hSCN3A and on hSCN9A were under 2000 nM and 2000 to 10000 nM, respectively.

For `O=S(=O)(Nc1nccs1)c1ccc(Nc2nc(CNC3CCCCCC3)cs2)cc1` [Compound 74, 4-(4-((cycloheptylamino)methyl)thiazol-2-ylamino)-N-(thiazol-2-yl)benzenesulfonamide], the IC50 at hSCN3A and on hSCN9A was 2000 to 10000 nM in each case.

Regarding `CN(CCc1ccncc1)Cc1csc(Nc2ccc(S(=O)(=O)Nc3nccs3)cc2)n1` [Compound 75, 4-(4-((methyl(2-(pyridin-4-yl)ethyl)amino)methyl)thiazol-2-ylamino)-N-(thiazol-2-yl)benzenesulfonamide], the figures for the IC50 on hSCN3A and on hSCN9A were under 2000 nM and over 1000 nM, respectively.

Take `COc1ccc(CNCc2csc(Nc3ccc(S(=O)(=O)Nc4nccs4)cc3)n2)c(OC)c1` [Compound 76, 4-(4-((2,4-dimethoxybenzylamino)methyl)thiazol-2-ylamino)-N-(thiazol-2-yl)benzenesulfonamide]: the IC50 at hSCN3A and on hSCN9A was 2000 to 10000 nM each time.

With `COC(=O)c1sc(Nc2ccc(S(=O)(=O)Nc3nccs3)cc2)nc1C` [Compound 77, methyl 4-methyl-2-(4-(N-thiazol-2-ylsulfamoyl)phenylamino)thiazole-5-carboxylate], the IC50 at hSCN3A is under 2000 nM; on hSCN9A, over 3000 nM.

`Cc1csc(Nc2ccc(S(=O)(=O)Nc3nccs3)cc2)n1` [Compound 78, 4-(4-methylthiazol-2-ylamino)-N-(thiazol-2-yl)benzenesulfonamide]: the IC50 at hSCN3A is 2000 to 10000 nM; on hSCN9A, over 1000 nM.

On to `O=S(=O)(Nc1nccs1)c1ccc(Nc2nc(Cc3ccc(F)cc3F)cs2)cc1` [Compound 79, 4-(4-(2,4-difluorobenzyl)thiazol-2-ylamino)-N-(thiazol-2-yl)benzenesulfonamide], for which the IC50 at hSCN3A and at hSCN9A was under 2000 nM in each case.

As to `Cc1nc(Nc2ccc(S(=O)(=O)Nc3nccs3)cc2)sc1C` [Compound 80, 4-(4,5-dimethylthiazol-2-ylamino)-N-(thiazol-2-yl)benzenesulfonamide], the IC50 on hSCN3A is 2000 to 10000 nM; on hSCN9A, over 1000 nM.

`O=S(=O)(Nc1nccs1)c1ccc(Nc2nccc(OCC3CCCCC3)n2)cc1` [Compound 81, 4-(4-(cyclohexylmethoxy)pyrimidin-2-ylamino)-N-(thiazol-2-yl)benzenesulfonamide]: the IC50 on hSCN3A is under 2000 nM; on hSCN9A it was over 10000 nM.

With `O=S(=O)(Nc1nccs1)c1ccc(Nc2nc(CSc3ccc(F)cc3)cs2)cc1` [Compound 82, 4-(4-((4-fluorophenylthio)methyl)thiazol-2-ylamino)-N-(thiazol-2-yl)benzenesulfonamide], the IC50 on hSCN3A and at hSCN9A was under 2000 nM throughout.

Consider `O=S(=O)(Nc1nccs1)c1ccc(Nc2nc(C(F)(F)F)cs2)cc1` [Compound 83, N-(thiazol-2-yl)-4-(4-(trifluoromethyl)thiazol-2-ylamino)benzenesulfonamide], for which the IC50 on hSCN3A was under 2000 nM; at hSCN9A, 2000 to 10000 nM.

For `O=S(=O)(Nc1nccs1)c1ccc(Nc2nc(-c3ccc(C(F)(F)F)cc3)cs2)cc1` [Compound 84, N-(thiazol-2-yl)-4-(4-(4-(trifluoromethyl)phenyl)thiazol-2-ylamino)benzenesulfonamide], the IC50 on hSCN3A and on hSCN9A was under 2000 nM each time.

As to `COc1ccnc(Nc2ccc(S(=O)(=O)Nc3nccs3)cc2)n1` [Compound 85, 4-(4-methoxypyrimidin-2-ylamino)-N-(thiazol-2-yl)benzenesulfonamide], the IC50 is over 1000 nM on hSCN3A and over 3000 nM on hSCN9A.

These data come from patent US8124610B2, “Sodium channel inhibitors” (Icagen Inc., priority 2007, dated 2012).
